# Like-named read-outs stand apart in the source and are kept apart here.
# Experiments:
# [1] = tested on: A172 cells (glioblastoma cells); assay: Cell viability assay, A172 cells, alone or with antiproliferative agent; assay type: cell-based; conditions: Homo sapiens, A 172
# Source text: (§1) In these assays, A172 cells (glioblastoma cells) were contacted with a miR-21 inhibitor either alone or in combination with a conventional antiproliferative agent (i.e., 5-fluorouracil or curcumin). At the concentrations indicated, no toxic effects on HEK293T (human embryonic kidney) cells were observed.
# [2] = tested on: HEK293T (human embryonic kidney) cells; assay: Cell viability assay, HEK293T cells; assay type: cell-based; conditions: 10 μM Compound
# Source text: as §1
# [3] = tested on: mature miR-93; assay: Quantitative RT-PCR of mature miR-93; assay type: cell-based, human; conditions: for mature miR-93 level, % of DMSO control: Table 2
# Source text: (§2) UNG (Applied Biosystems). […] (Sigma).
# [4] = tested on: mature miR-21; assay: Quantitative RT-PCR of mature miR-21; assay type: cell-based, human; conditions: for miR-21 RT PCR* (% Decrease as compared to DMSO control): Table 2; for mature miR-21 expression: HCT116 colon cancer cells and A172 glioblastoma cells, FIG. 6B
# Source text: as §2
# [5] = tested on: mature miR-30; assay: Quantitative RT-PCR of mature miR-30; assay type: cell-based, human; conditions: for mature miR-30 level (% of DMSO control): Table 2
# Source text: as §2
# [6] = tested on: Luc-Linker control; assay: Luc-linker control luciferase reporter in HeLa cells; assay type: cell-based, human; conditions: 10 μM, relative to DMSO control
# Source text: (§3) MicroRNA miR-21 was selected as a target miRNA due to its involvement as an anti-apoptotic factor in cancer cells and its elevated levels in various cancers such as breast, ovarian, and lung cancer as well as glioblastoma (Chan, et al. (2005) Cancer Res. 65:6029). Lentiviral reporter constructs for miRNA activity were assembled by introducing the complementary sequences of mature miR-21 (5′-UAGCUUAUCAGACUGAUGUUGA-3′; SEQ ID NO:13), miR-30A (5′-CUUUCAGUCGGAUGUUUGCAGC-3′; SEQ ID NO:14) as a specificity control, and a linker sequence (a previously present multiple-cloning site with no detectable recognition by natural miRNAs) downstream of a luciferase reporter gene as a negative control (FIG. 1).
# (§4) Luc-miR-21, Luc-miR-30A, and Luc-linker (control) were, by viral infection, introduced into HeLa cells, which express high levels of miR-21, but only low levels of miR-30A (Cheng, et al. (2005) Nucl. Acids Res. 33:1290).
# (§5) It was subsequently determined whether Compound 2 was a specific inhibitor of miR-21 or whether it could interfere with the general miRNA biogenesis pathway. Thus, HeLa cells stably expressing both the miR-30 luciferase reporter construct and miR-30 were treated with Compound 2.
# [7] = tested on: HCT116 colon cancer cells; assay: Cell proliferation of HCT116 cells, drug combinations; assay type: cell-based, human
# Source text: The % activity indicates % live cell activity.
# [8] = tested on: miR-21; assay: miR-21 luciferase reporter (Luc-miR-21) screening assay in HeLa cells; assay type: cell-based, human; conditions: HeLa Luc-miR-21 reporter; for increase of the luciferase signal: 48 hours, compared to untreated cells
# Source text: as §3, §4
# To illustrate the method of the present invention, a primary screen of >1000 compounds was conducted. The library was composed of a collection of novel compounds and the Library of Pharmacologically Active Compounds (LOPAC library, Sigma-Aldrich, St Louis, Mo.). All compounds were stored at a 10 mM concentration in DMSO to keep the DMSO concentration in the actual screen at 0.1% thereby minimizing toxicity. HeLa cells stably expressing the miR-reporter were treated with DMSO ranging from 0.1-1%. Luciferase signals were determined 48 hours after the treatment.
# HeLa cells (2500 cells) were plated in each well of 384-well plate 24 hour before the addition of compounds. Compounds at 10 μM final concentration were added to each well. Luciferase signal were determined 48 hours after compound treatment. Using this screening assay, compound 1 was identified as a miR-21 antagonist.
# [9] = tested on: miR-30; assay: miR-30 luciferase reporter in HeLa cells stably expressing miR-30; assay type: cell-based, human; conditions: HeLa cells stably expressing miR-30 reporter and miR-30, 10 μM
# Source text: as §3
# The specificity of the reporter system was tested by assaying cells which contained both the Luc-miR-30A reporter and a construct expressing exogenous miR-30.
# as §5
# [10] = tested on: primary miR-21 (pri-miR-21); assay: Quantitative RT-PCR of primary miR-21; assay type: cell-based, human; conditions: for primary miR-21 expression: HCT116 colon cancer cells and A172 glioblastoma cells, FIG. 6A
# Source text: as §2
# [11] = tested on: miR-21; assay: High throughput primary miR-21 FLuc reporter assay (concentration-response); assay type: cell-based, human; conditions: Homo sapiens, read-out: AC50
# In short: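 HeLa cells carrying a Luc-miR-21 firefly luciferase reporter were treated with compound for 48 h. miR-21 inhibition was read as increased luciferase signal. Concentration-response data were fitted with a four-parameter logistic model.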
# [12] = 10 μM Compound + 5FU 0.5 μM, read-out: Cell Viability A172 Cells, Compound + 5FU (0.5 μM)
# [13] = 10 μM Compound + Curcumin 10 μM, read-out: Cell Viability A172 Cells, Compound + Curcumin (10 μM)
# [14] = 10 μM Compound alone, read-out: Cell Viability A172 Cells, Compound
# [15] = HeLa cells, 10 μM, relative to DMSO
# [16] = MDA-MB-231, MCF-7 and A172 cell lines
# [17] = HeLa, 48 h, HeLa Luc-miR-21 reporter, 48-hour incubation
smiles,measurement,setting,value
COc1ccc2c(c1N)CCC1C2CC[C@]2(C)C(=O)CCC12 (some centres unmarked) [Compound 7],viability at 10 µM,[1]; [12],54%
same,viability at 10 µM,[1]; [13],43%
same,viability at 10 µM,[1]; [14],87%
same,Cell Viability HEK293T Cells,[2],86%
C#CCNC(=O)c1ccc(NNc2ccccc2)cc1 [Compound 3],"mature miR-93 level, % of DMSO control",[3],56%
same,viability at 10 µM,[1]; [12],52%
same,viability at 10 µM,[1]; [13],56%
same,viability at 10 µM,[1]; [14],75%
same,miR-21 RT PCR* (% Decrease as compared to DMSO control),[4],39%
same,Cell Viability HEK293T Cells,[2],95%
same,mature miR-30 level (% of DMSO control),[5],85%
"C#CCNC(=O)c1ccc(/N=N/c2ccccc2)cc1 [Compound 2, (E)-4-(Phenyldiazenyl)-N-(prop-2-ynyl)benzamide]",luciferase signal in HeLa cells expressing the Luc-Linker control,[6],did not affect the luciferase signal
same,level of endogenous mature miR-93,[3]; [15],not reduced
same,mature miR-93 level,[3]; [16],no effect
same,"mature miR-93 level, % of DMSO control",[3],115%
same,"proliferation of HCT116 colon cancer cells, combination with 5-FU",[7]; FIG. 5A,synergistically decrease
same,"proliferation of HCT116 colon cancer cells, combination with Curcumin",[7]; FIG. 5B,synergistically decrease
same,viability at 10 µM,[1]; [12],8%
same,viability at 10 µM,[1]; [13],12%
same,viability at 10 µM,[1]; [14],84%
same,mature miR-21 level,[4]; [16],suppressed
same,miR-21 RT PCR* (% Decrease as compared to DMSO control),[4],22%
same,fold increase of the luciferase signal,[8]; 10 μM,5 fold
same,increase of the luciferase signal,[8]; 10 μM,485%
same,EC50,"[8]; Homo sapiens, concentration dependent, read-out: EC50 of increase of luciferase signal",2 µM
same,Cell Viability HEK293T Cells,[2],98%
same,luciferase signal of miR-30 luciferase reporter,[9],no increase of the luciferase signal was detected
same,reduction of primary miR-21 (pri-miR-21) level,"[10]; HeLa cells, 10 μM, compared to DMSO control",87%
same,primary miR-21 level,[10]; [16],suppressed
same,level of exogenous mature miR-30,[5]; [15],not reduced
same,mature miR-30 level,[5]; [16],no effect
same,mature miR-30 level (% of DMSO control),[5],110%
"COc1cc(/C=C/C(=O)CC(=O)/C=C/c2ccc(O)c(OC)c2)ccc1O [Curcumin, curcumin, reference compound]",mature miR-21 expression,[4],increased
same,primary miR-21 expression,[10],increased
Nc1ccc(/N=N/c2ccc([N+](=O)[O-])cc2)cc1 [Compound 1],increase of the luciferase signal,[8]; 10 μM,251%
"C[C@]12CC[C@@H]3c4ccc(O)cc4CC[C@H]3[C@@H]1CCC2=O [estrone, reference compound]",Cell Viability HEK293T Cells,[2],85%
O=C1c2cc3c(cc2-c2[nH]c(=O)c4ccccc4c21)OCO3 [Compound 5],viability at 10 µM,[1]; [12],45%
same,viability at 10 µM,[1]; [13],40%
same,viability at 10 µM,[1]; [14],70%
same,Cell Viability HEK293T Cells,[2],79%
COc1cc2c(cc1N)C1CC[C@]3(C)C(=O)CCC3C1CC2 (some centres unmarked) [Compound 8],viability at 10 µM,[1]; [12],78%
same,viability at 10 µM,[1]; [13],57%
same,viability at 10 µM,[1]; [14],100%
same,Cell Viability HEK293T Cells,[2],89%
Cn1c2c(c3ccccc3c1=O)C(=O)c1cc3c(cc1-2)OCO3 [Compound 4],"mature miR-93 level, % of DMSO control",[3],116%
same,viability at 10 µM,[1]; [12],62%
same,viability at 10 µM,[1]; [13],54%
same,viability at 10 µM,[1]; [14],66%
same,miR-21 RT PCR* (% Decrease as compared to DMSO control),[4],12%
same,Cell Viability HEK293T Cells,[2],98%
same,mature miR-30 level (% of DMSO control),[5],136%
COc1ccc2c(c1[N+](=O)[O-])CCC1C2CC[C@]2(C)C(=O)CCC12 (some centres unmarked) [Compound 6],"mature miR-93 level, % of DMSO control",[3],83%
same,viability at 10 µM,[1]; [12],47%
same,viability at 10 µM,[1]; [13],39%
same,viability at 10 µM,[1]; [14],71%
same,miR-21 RT PCR* (% Decrease as compared to DMSO control),[4],34%
same,Cell Viability HEK293T Cells,[2],97%
same,mature miR-30 level (% of DMSO control),[5],73%
"O=c1[nH]cc(F)c(=O)[nH]1 [Compound 5-FU, 5-fluorouracil, reference compound]",mature miR-21 expression,[4],increased
same,primary miR-21 expression,[10],increased
COCC(=O)Nc1ccc(C(=O)Nc2ccccc2Cl)cc1 [Compound 178],AC50,[11]; [17],11.7 µM
CCCNC(=O)OCc1cccnc1Sc1ccc(C)cc1 [Compound 319],AC50,[11]; Table 12 singletons,16.5 µM
COc1cc2cc(C#N)c(SCC(=O)N3CCOCC3)nc2cc1OC [Compound 144],AC50,[11]; [17],11.7 µM
Cc1cccc(-n2nnc(-c3nc(-c4cccs4)no3)c2N)c1C [Compound 9],AC50,[11]; [17],0.09 µM
Cc1ccc(C)c(-n2nnc(-c3nc(-c4ccc(Cl)cc4)no3)c2N)c1 [Compound 21],AC50,[11]; [17],1.31 µM
COc1ccccc1C(=O)n1nc(-c2ccco2)nc1NCc1ccc(Cl)cc1 [Compound 35],AC50,[11]; [17],14.7 µM
COc1ccc(NC(=O)c2ncn(-c3ccccc3)n2)cc1Cl [Compound 101],AC50,[11]; [17],9.27 µM
Cc1ccc(Nc2ncnc(N)n2)cc1C [Compound 61],AC50,[11]; [17],13.1 µM
COc1ccc(NC(=O)c2ccccc2NC(=O)c2ccccc2C(=O)O)c(OC)c1 [Compound 104],AC50,[11]; [17],18.5 µM
Clc1ccc(-n2ncc3c(NCc4ccccn4)ncnc32)cc1 [Compound 245],AC50,[11]; [17],5.85 µM
O=C(CSc1nnc(-c2ccc(Cl)cc2)o1)Nc1ccc(F)cc1 [Compound 122],AC50,[11]; [17],1.04 µM

# Reference: patent US20120010177A1, “MicroRNA Modulators and Method for Identifying And Using The Same” (The Wistar Institute / North Carolina State University, priority 2008, published 2012)
